Source: PMC7700423, “Differential Effects of 1α,25-Dihydroxyvitamin D3 on the Expressions and Functions of Hepatic CYP and UGT Enzymes and Its Pharmacokinetic Consequences In Vivo” (Pharmaceutics, 2020)

What was measured:
[1] = Serum chemistry for liver function after 1,25(OH)2D3 treatment; format: in vivo, rat; details: fifth day after 2.56 nmol/kg/day i.p. for 4 days, n = 3
Experimental: Male Sprague-Dawley (SD) rats (8 weeks, 260–280 g) were purchased from Nara Biotech Co. (Seoul, Korea). Animals were maintained in cages under controlled conditions under a 12-h dark/light cycle with free access to food and tap water, acclimated for at least five days in the laboratory before experiments, and allocated to a control group or 1,25(OH)2D3-treated group. The 1,25(OH)2D3 dosing solution was prepared by diluting 1,25(OH)2D3 in ethanol with 5 mL of corn oil (2.56 nmol/mL of final concentration). The dosing solution for the control group was prepared but the 1,25(OH)2D3 was omitted. The dosing solutions were administered intraperitoneally to rats at a dose of 1 mL/kg/day (2.56 nmol/kg/day as 1,25(OH)2D3) over four consecutive days. On the fifth day, rats were used for pharmacokinetic study.
Rat serum was obtained from whole blood on the fifth day after the 1,25(OH)2D3 treatment. The assay of total protein, albumin, serum glutamic oxaloacetic transaminase (sGOT), and serum glutamic pyruvic transaminase (sGPT) was performed by Green Cross Reference Laboratory (Seoul, Korea).

[2] = system: liver tissue; experiment: Liver histology (H&E) after 1,25(OH)2D3 treatment; format: in vivo, rat; details: H&E sections after four days of treatment
Experimental: (§1) Male Sprague-Dawley (SD) rats (8 weeks, 260–280 g) were purchased from Nara Biotech Co. (Seoul, Korea). […] The dosing solution for the control group was prepared but the 1,25(OH)2D3 was omitted. […] On the fifth day, rats were used for pharmacokinetic study.

[3] = system: hepatic Cyp1a2 mRNA; experiment: Hepatic mRNA expression by qPCR; format: in vivo, rat; details: 2.56 nmol/kg/day i.p. for 4 days, n = 4-5
Experimental: as §1
(§2) Collected livers were frozen immediately with liquid nitrogen and stored at −80 °C. Trizol reagent in RNAiso Plus (Takara Bio, Inc., Shiga, Japan) was used to extract RNA from 100-mg tissue homogenates according to the manufacturer’s protocol. After purities and total RNA concentrations extracted from liver samples were determined at a wavelength of 260/280 nm with a Nanodrop 2000c spectrophotometer (Thermo Scientific, Waltham, MA, USA), synthesis of cDNA was processed from 1 μg of total RNA using the following conditions: incubation at 50 °C for 1 h, inactivation at 95 °C for 5 min, and cooling to 4 °C. The synthesized cDNA was then subjected to qPCR assays using SYBR® Premix Ex TagTM on Stratagene Mx3005P (Agilent Technologies, Boblingen, Germany) using the following conditions: 95 °C for 10 min and 40 cycles of 95 °C for 15 s and 55 °C for 30 s. A “Comparative Quantitation” mode was selected, and fold expressions were calculated using the delta-delta method 2^−(△△Ct). GAPDH was used as the internal reference gene for normalization. The forward and reverse primers used for qPCR analysis are listed in Supplementary Table S1 [2, 25, 28, 29].

[4] = system: hepatic Cyp2b1 mRNA; experiment: Hepatic mRNA expression by qPCR; format: in vivo, rat; details: 2.56 nmol/kg/day i.p. for 4 days, n = 4-5, p = 0.006
Experimental: as §1, §2

[5] = system: hepatic Cyp2c11 mRNA; experiment: Hepatic mRNA expression by qPCR; format: in vivo, rat; details: 2.56 nmol/kg/day i.p. for 4 days, n = 4-5, p = 0.001
Experimental: as §1, §2

[6] = system: hepatic Cyp2c6 mRNA; experiment: Hepatic mRNA expression by qPCR; format: in vivo, rat; details: 2.56 nmol/kg/day i.p. for 4 days, n = 4-5
Experimental: as §1, §2

[7] = system: hepatic Cyp2d2 mRNA; experiment: Hepatic mRNA expression by qPCR; format: in vivo, rat; details: 2.56 nmol/kg/day i.p. for 4 days, n = 4-5
Experimental: as §1, §2

[8] = system: hepatic Ugt1a1 mRNA; experiment: Hepatic mRNA expression by qPCR; format: in vivo, rat; details: 2.56 nmol/kg/day i.p. for 4 days, n = 4-5
Experimental: as §1, §2

[9] = system: hepatic Ugt1a6 mRNA; experiment: Hepatic mRNA expression by qPCR; format: in vivo, rat; details: 2.56 nmol/kg/day i.p. for 4 days, n = 4-5
Experimental: as §1, §2

[10] = system: hepatic Ugt1a7 mRNA; experiment: Hepatic mRNA expression by qPCR; format: in vivo, rat; details: 2.56 nmol/kg/day i.p. for 4 days, n = 4-5
Experimental: as §1, §2

[11] = system: hepatic Ugt1a8 mRNA; experiment: Hepatic mRNA expression by qPCR; format: in vivo, rat; details: 2.56 nmol/kg/day i.p. for 4 days, n = 4-5
Experimental: as §1, §2

[12] = system: hepatic Ugt2b1 mRNA; experiment: Hepatic mRNA expression by qPCR; format: in vivo, rat; details: 2.56 nmol/kg/day i.p. for 4 days, n = 4-5
Experimental: as §1, §2

[13] = system: hepatic Ugt2b3 mRNA; experiment: Hepatic mRNA expression by qPCR; format: in vivo, rat; details: 2.56 nmol/kg/day i.p. for 4 days, n = 4-5
Experimental: as §1, §2

[14] = system: hepatic Cyp2b1 protein; experiment: Hepatic protein expression by Western blotting; format: in vivo, rat; details: 2.56 nmol/kg/day i.p. for 4 days, n = 5, p = 0.0006
Experimental: (§3) (Seoul, Korea). […] On the fifth day, rats were used for pharmacokinetic study. For protein extraction, the rat liver tissues were homogenized in RIPA buffer (#89900, ThermoFisher Scientific, Waltham, MA, USA) with protease/phosphatase inhibitors using a Diax 900 homogenizer. The homogenized liver samples were incubated in ice for 30 min (for complete lysis) with vortexing every 5 min, and then centrifuged at 14,000× g for 30 min. The supernatants were collected and diluted by 10 times. The protein levels were quantified using the BCA Protein Assay Kit (#23227, ThermoFisher Scientific, Waltham, MA, USA) with bovine serum albumin (BSA) standards. Total protein lysates were subjected to Western blot analysis. Lysates were mixed with 2X Laemmli buffer (Bio-Rad) supplemented with β-mercaptoethanol (Bio-Rad) and boiled for 5 min. […] Immunoblotting was performed with the following antibodies: rabbit CYP2C11 antibody (#ab3571, Abcam, Cambridge, UK), rabbit UGT1A6 antibody (#ab157476, Abcam, Cambridge, UK) and mouse CYP2B1/B2 antibody (#sc-53244, Santa Cruz Biotechnology, Dallas, TX, USA) and HRP-conjugated β-actin mouse antibody (Sigma; cat#A3854; 1:10,000). The following secondary antibodies were used: HRP-conjugated goat antibody to mouse IgG (Genetex; cat# GTX-213111-01, 1:5000), HRP-conjugated goat antibody to rabbit IgG (Genetex; cat# GTX-213110-01; 1:5000). Then, the bands were visualized via chemiluminescence (#34577, ThermoFisher Scientific, Waltham, MA, USA). Densitometric analysis of the bands was performed using ImageJ software (NIH; rsb.info.nih.gov/ij).

[15] = system: hepatic Cyp2b2 protein; experiment: Hepatic protein expression by Western blotting; format: in vivo, rat; details: 2.56 nmol/kg/day i.p. for 4 days, n = 5, p = 0.1728
Experimental: as §3

[16] = system: hepatic Cyp2c11 protein; experiment: Hepatic protein expression by Western blotting; format: in vivo, rat; details: 2.56 nmol/kg/day i.p. for 4 days, n = 5, p = 0.0001
Experimental: as §3

[17] = system: hepatic Ugt1a6 protein; experiment: Hepatic protein expression by Western blotting; format: in vivo, rat; details: 2.56 nmol/kg/day i.p. for 4 days, n = 5, p = 0.5192
Experimental: as §1

[18] = substrate: CCCCNC(=O)NS(=O)(=O)c1ccc(C)cc1
[19] = substrate: CC(NC(C)(C)C)C(=O)c1cccc(Cl)c1

C=C1/C(=C\C=C2/CCC[C@]3(C)[C@@H]([C@H](C)CCCC(C)(C)O)CC[C@@H]23)C[C@@H](O)C[C@@H]1O [1,25(OH)2D3, 1α,25-dihydroxyvitamin D3]
Albumin [1]: 3.97 ± 0.15 g/dL | Total protein [1]: 5.73 ± 0.25 g/dL | sGOT [1]: 158 ± 35 IU/L | sGPT [1]: 22.7 ± 3.2 IU/L | Damage to liver tissue (histology) [2]: no apparent evidence of damage to liver tissue | mRNA expression of hepatic Cyp1a2 vs control rats [3]: no significant differences | mRNA expression of hepatic Cyp2b1 vs control rats [4]: significantly lower | mRNA expression of hepatic Cyp2c11 vs control rats [5]: significantly lower | mRNA expression of hepatic Cyp2c6 vs control rats [6]: no significant differences | mRNA expression of hepatic Cyp2d2 vs control rats [7]: no significant differences | mRNA expression of hepatic Ugt1a1 vs control rats [8]: no significant differences | mRNA expression of hepatic Ugt1a6 vs control rats [9]: significantly lower | mRNA expression of hepatic Ugt1a7 vs control rats [10]: no significant differences | mRNA expression of hepatic Ugt1a8 vs control rats [11]: no significant differences | mRNA expression of hepatic Ugt2b1 vs control rats [12]: no significant differences | mRNA expression of hepatic Ugt2b3 vs control rats [13]: no significant differences | Hepatic Cyp2b1 protein expression vs control rats [14]: significantly decreased | Hepatic Cyp2b2 protein expression vs control rats [15]: lower, but this difference is not significant | Hepatic Cyp2c11 protein level vs control rats [16]: significantly lower | Hepatic Ugt1a6 protein expression vs control rats [17]: remained unchanged

B1: Cyp2c11 (Rattus norvegicus) (protein)
chain: MDPVLVLVLTLSSLLLLSLWRQSFGRGKLPPGPTPLPIIGNTLQIYMKDIGQSIKKFSKVYGPIFTLYLGMKPFVVLHGYEAVKEALVDLGEEFSGRGSFPVSERVNKGLGVIFSNGMQWKEIRRFSIMTLRTFGMGKRTIEDRIQEEAQCLVEELRKSKGAPFDPTFILGCAPCNVICSIIFQNRFDYKDPTFLNLMHRFNENFRLFSSPWLQVCNTFPAIIDYFPGSHNQVLKNFFYIKNYVLEKVKEHQESLDKDNPRDFIDCFLNKMEQEKHNPQSEFTLESLVATVTDMFGAGTETTSTTLRYGLLLLLKHVDVTAKVQEEIERVIGRNRSPCMKDRSQMPYTDAVVHEIQRYIDLVPTNLPHLVTRDIKFRNYFIPKGTNVIVSLSSILHDDKEFPNPEKFDPGHFLDERGNFKKSDYFMPFSAGKRICAGEALARTELFLFFTTILQNFNLKSLVDVKDIDTTPAISGFGHLPPFYEACFIPVQRADSLSSHL
Km [18]: 232.83 ± 51.33 µM | Vmax [18]: 683.37 ± 94.05 pmol/min/mg protein

B2: Cyp2b1 (Rattus norvegicus) (protein)
chain: MEPTILLLLALLVGFLLLLVRGHPKSRGNFPPGPRPLPLLGNLLQLDRGGLLNSFMQLREKYGDVFTVHLGPRPVVMLCGTDTIKEALVGQAEDFSGRGTIAVIEPIFKEYGVIFANGERWKALRRFSLATMRDFGMGKRSVEERIQEEAQCLVEELRKSQGAPLDPTFLFQCITANIICSIVFGERFDYTDRQFLRLLELFYRTFSLLSSFSSQVFEFFSGFLKYFPGAHRQISKNLQEILDYIGHIVEKHRATLDPSAPRDFIDTYLLRMEKEKSNHHTEFHHENLMISLLSLFFAGTETSSTTLRYGFLLMLKYPHVAEKVQKEIDQVIGSHRLPTLDDRSKMPYTDAVIHEIQRFSDLVPIGVPHRVTKDTMFRGYLLPKNTEVYPILSSALHDPQYFDHPDSFNPEHFLDANGALKKSEAFMPFSTGKRICLGEGIARNELFLFFTTILQNFSVSSHLAPKDIDLTPKESGIGKIPPTYQICFSAR
Km [19]: 171.70 ± 39.46 µM | Vmax [19]: 35.20 ± 6.62 pmol/min/mg protein
